Test results reported in patent US20220235065A1 (Epizyme, Inc., priority 2016, published 2022).

Legend:
EHMT1 = biological target: T1, EHMT1 (Homo sapiens, UniProt Q9H9B1); assay: EHMT1 PEP (EHMT1 peptide enzyme assay); type: biochemical; settings: peptide substrate enzyme assay
T1 sequence (Q9H9B1 1-1298): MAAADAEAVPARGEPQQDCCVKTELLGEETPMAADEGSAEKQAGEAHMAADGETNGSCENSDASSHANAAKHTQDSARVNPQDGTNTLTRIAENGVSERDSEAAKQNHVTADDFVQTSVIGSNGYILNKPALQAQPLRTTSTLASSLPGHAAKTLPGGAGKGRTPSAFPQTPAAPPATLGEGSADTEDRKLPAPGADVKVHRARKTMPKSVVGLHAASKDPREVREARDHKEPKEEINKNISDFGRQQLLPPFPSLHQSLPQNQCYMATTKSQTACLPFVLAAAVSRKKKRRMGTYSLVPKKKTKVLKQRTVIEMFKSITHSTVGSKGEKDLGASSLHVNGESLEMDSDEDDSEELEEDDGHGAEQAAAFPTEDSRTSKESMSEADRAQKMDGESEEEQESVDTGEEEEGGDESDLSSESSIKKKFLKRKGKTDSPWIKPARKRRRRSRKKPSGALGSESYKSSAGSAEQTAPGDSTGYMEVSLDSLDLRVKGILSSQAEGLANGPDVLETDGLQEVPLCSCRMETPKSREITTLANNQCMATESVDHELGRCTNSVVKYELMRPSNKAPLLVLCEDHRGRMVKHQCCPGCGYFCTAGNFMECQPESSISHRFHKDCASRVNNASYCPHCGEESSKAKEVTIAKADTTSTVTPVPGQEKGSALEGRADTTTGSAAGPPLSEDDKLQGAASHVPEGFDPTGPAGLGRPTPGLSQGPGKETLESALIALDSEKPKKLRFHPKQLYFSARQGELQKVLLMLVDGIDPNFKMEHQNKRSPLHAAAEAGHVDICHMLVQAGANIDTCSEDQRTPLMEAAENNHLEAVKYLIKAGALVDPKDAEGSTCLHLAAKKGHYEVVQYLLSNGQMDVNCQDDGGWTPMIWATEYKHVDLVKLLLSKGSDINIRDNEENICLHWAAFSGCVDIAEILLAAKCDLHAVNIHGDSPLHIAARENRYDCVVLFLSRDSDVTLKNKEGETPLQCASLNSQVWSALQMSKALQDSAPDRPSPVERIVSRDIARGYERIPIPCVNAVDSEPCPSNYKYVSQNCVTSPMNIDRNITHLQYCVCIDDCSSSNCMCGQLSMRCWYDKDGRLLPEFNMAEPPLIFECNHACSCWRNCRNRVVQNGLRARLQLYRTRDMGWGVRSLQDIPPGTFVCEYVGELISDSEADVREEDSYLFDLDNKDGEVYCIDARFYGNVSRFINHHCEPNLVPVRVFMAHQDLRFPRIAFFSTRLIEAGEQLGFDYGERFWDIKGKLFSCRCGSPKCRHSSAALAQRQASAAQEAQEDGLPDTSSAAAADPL

[1] = test system: H3K9me2 in MDA-MB-231 cells; assay: MDA-MB-231 H3K9me2 in-cell western assay; type: cell-based; settings: Homo sapiens, read-out: EHMT2 ICW (IC50 μM)
How it was run: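 MDA-MB-231 cells (3,000/well) exposed to compound for two consecutive 48 h periods at 37 °C, then fixed and stained for H3K9me2, with DRAQ5 as DNA stain and infrared read at 700/800 nm. Percent inhibition was set between DMSO and UNC0638 control wells. IC50 came from triplicate dose–response fits with a four-parameter model, top 100%, bottom 0%.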

SMILES | IC50 (EHMT1) | IC50 [1]
CNc1cc(C)nc(Nc2ccc(OC)c(-n3cc(CN4CCC4)nn3)c2)n1 [Compound 121] | 0.1 to 1 µM | 0.1 to 1 µM
CNCc1cn(-c2cc3nc(NC)cc(C)c3cc2OC)nn1 [Compound 122] | 0.1 to 1 µM | 1 to 10 µM
CNc1cc(C)c2cc(OC)c(-n3cc(C4CCCN4)nn3)cc2n1 (stereo not shown) [Compound 125] | < 0.1 µM | 0.1 to 1 µM
CNC(=O)c1nn(-c2cc(Nc3nc(C)cc(NC)n3)ccc2OC)cc1C [Compound 134] | > 10 µM | > 10 µM
CNc1cc(C)nc(Nc2ccc(OC)c(-n3cc(C4CCCN4C)nn3)c2)n1 (stereo not shown) [Compound 136] | 0.1 to 1 µM | 0.1 to 1 µM

The remaining lines, values ahead:

IC50 (EHMT1) | IC50 [1] | SMILES
< 0.1 µM | 0.1 to 1 µM | CNc1cc(C)nc(Nc2ccc(OC)c(-n3cc(C4CCCN4)nn3)c2)n1 (stereo not shown) [Compound 137, N2-(4-methoxy-3-(4-(pyrrolidin-2-yl)-1H-1,2,3-triazol-1-yl)phenyl)-N4,6-dimethylpyrimidine-2,4-diamine]
> 10 µM | > 10 µM | CNc1cc(C)nc(Nc2ccc(OC)c(-n3nnc(C)c3CN(C)C)c2)n1 [Compound 138]
> 10 µM | > 10 µM | CNc1cc(C)nc(Nc2ccc(OC)c(-n3nnc(CN(C)C)c3C)c2)n1 [Compound 139]
0.1 to 1 µM | 1 to 10 µM | CCN(CC)Cc1cn(-c2cc(Nc3nc(C)cc(NC)n3)ccc2OC)nn1 [Compound 143]
1 to 10 µM | > 10 µM | CNc1cc(C)nc(Nc2ccc(OC)c(-n3cc4cc(C)ccc4n3)c2)n1 [Compound 144]
> 10 µM | > 10 µM | CNc1cc(C)nc(Nc2ccc(OC)c(-n3cc4cc(C5CC5)ccc4n3)c2)n1 [Compound 145]
